Test results from patent US20110030077A1, “METHODS OF MODULATING THE ORGANIC SOLUTE AND STEROID TRANSPORTER (OSTalpha-OSTbeta) ACTIVITY AND TREATING ASSOCIATED CONDITIONS” (UNIVERSITY OF ROCHESTER, priority 2009, published 2011).

Key:
Ostα-YN (mouse) = experiment: cell-based or functional assay
[1] = intraileal injection
Protocol: [^3H]Estrone 3-sulfate, 0.005 μmol/100 μl, was injected directly into the ileal lumen of Ostα^+/+ and Ostα^−/− male (FIG. 18C) and female (FIG. 18D) mice. Tissues were collected for analysis of radioactivity after 30 min.
Mice that had been fed ad libitum were anesthetized by intraperitoneal administration of pentobarbital sodium (50 mg/kg) and additional anesthetic was administered as required for the duration of the experiment. […] At the end of the experiments, 150-300 μl of blood was collected from the abdominal aorta in a tared 1 ml syringe containing 50 μl of heparin (1000 U/ml). The small intestine was removed and segmented into 3 parts, where the first third after the stomach comprised the duodenum, the middle third the jejunum, and the section before the ileo-ceco-colic junction comprised the ileum. Colon, liver, gallbladder, kidney and the urinary bladder were also removed and weighed. The contents of the small intestine, colon, gallbladder and urinary bladder were included in the analysis. For the liver, approximately 0.2-0.4 g of tissue was taken for analysis of radioisotope content. Tissue and blood samples were placed in tared 20-ml glass vials, and Solvable (Perkin-Elmer, Life and Analytical Sciences, Boston, Mass.) was added to each vial (1.0 ml/0.1 g tissue or 2.0 ml/1.0 ml blood), which was then heated to 60° C. for 2 to 3 h. The vials were allowed to cool to room temperature, and 0.1 ml of 0.1 M EDTA/1.0 ml of Solvable was added to each vial of blood. H2O2 (30%) was then added in 0.1-ml aliquots (0.3 ml/1.0 ml Solvable for blood or 0.1 ml/1.0 ml Solvable for tissues). After standing at room temperature for 15 to 30 min, the vials were capped tightly and heated to 60° C. for 1 h and allowed to cool back to room temperature. After the addition of scintillation fluid (4 ml of Opti-Fluor to 200 μl of each sample) (Perkin-Elmer, Life and Analytical Sciences, Boston, Mass.), the samples were allowed to stand for at least 2 h at room temperature before counting. Samples were counted in a Beckman LS 6500 scintillation counter (Beckman Coulter, Fullerton, Calif.). […]

Ostα-YN (mouse), sequence (Q8R000 whole entry): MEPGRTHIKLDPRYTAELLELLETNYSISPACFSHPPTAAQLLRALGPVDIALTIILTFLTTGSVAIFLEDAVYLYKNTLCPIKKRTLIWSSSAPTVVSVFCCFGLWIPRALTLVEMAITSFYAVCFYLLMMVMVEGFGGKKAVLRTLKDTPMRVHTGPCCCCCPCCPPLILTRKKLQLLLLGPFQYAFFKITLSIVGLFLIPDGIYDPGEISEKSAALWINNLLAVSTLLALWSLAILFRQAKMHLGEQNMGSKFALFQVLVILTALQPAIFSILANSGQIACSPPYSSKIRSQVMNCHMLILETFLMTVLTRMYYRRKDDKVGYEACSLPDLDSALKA

Compound Ostβ29-53-YC (peptide) has a [3H]taurocholate transport in cells co-transfected with Ostα-YN and Ostβ-YC (Ostα-YN (mouse)) of 30%.
With `C[C@H](CCC(=O)NCCS(=O)(=O)O)[C@H]1CC[C@H]2[C@@H]3[C@H](O)C[C@@H]4C[C@H](O)CC[C@]4(C)[C@H]3C[C@H](O)[C@]12C` [taurocholate, taurocholic acid] the “absorption from the ileum” value ([1]; wild type mice, 15 min) was greater than 90%.
For estrone 3-sulfate [estrone sulfate], the “fraction absorbed from the ileum” value ([1]; Ostα−/− mice, 30 min) was 20-30% and the “removed from the ileum” value ([1]; wild type mice, 30 min) was 60-70%.
